Data from patent publication US12133714B2, “Line excitation array detection microscopy” (BOARD OF REGENTS, THE UNIVERSITY OF TEXAS SYSTEM, priority 2018, dated 2024).
“Also recorded” adds a separate entry of the source.

Tests used:
[1] = test system: polyQ40 strain C. elegans (polyglutamine mediated aggregation of YFP-labeled protein in body wall muscle cells); test: LEAD flow cytometry imaging of polyQ aggregation model C. elegans treated with drug; format: in vivo; conditions: for number of fluorescent protein aggregates per animal (median ± standard deviation): polyQ40 animals treated at L1 stage, imaged at late L4 stage, untreated polyQ40 27±3
Source text: The model simulates human Huntington's disease through CAG repeats in the huntingtin allele, with 35 or more repeats resulting in polyglutamine (polyQ) mediated aggregation, protein misfolding, and cellular toxicity^36. Specifically, the polyQ40 strain was imaged with 40 CAG repeats at the late L4 stage when the disease phenotype presents as aggregation of YFP-labeled protein in the body wall muscle cells. The aggregates are 1-5 μm in diameter and distributed in 3D along the length of the animal, and therefore requires relatively high resolution volumetric imaging. […] Populations of up to 300 animals were imaged. The animals moved at 0.89±0.31 m/s through the imaging channel, resulting in an imaging time of 1.07±0.26 ms per animal with the majority of the population imaged within 1 second (See FIGS. 10B, 10C). The maximum available laser power of 4 mW at the sample was sufficient to utilize the full dynamic range of our collection system. […] Despite the ultrafast scanning, C. elegans images show SNRs exceeding 500 for the center PMT elements and slightly lower SNR for the less responsive surrounding elements in accordance with the PMT specifications (see FIG. 9D). 27±3 (median±standard deviation) aggregates per animal for the polyQ40 strain were found, similar to previous findings for worms at the same stage^36. […] PolyQ40 animals were treated with either 25 or 50 μM dronedarone at the L1 stage, and were imaged at the late L4 stage (FIG. 16A). The drug reduced aggregation to 16±5 and 7±2 aggregates per animal for 25 μM and 50 μM, respectively, showing a dose response (FIG. 16B). The system's high-speed 3D imaging capability for drug screening is established by the short imaging time for the effectivity of dronedarone reaches a statistically significant level—animals treated with 25 and 50 μM dronedarone reach p=0.001 in under 0.25 s and 0.10 s, respectively (FIG. 16C). […]

[2] = test system: polyQ40 strain C. elegans (polyglutamine mediated aggregation of YFP-labeled protein in body wall muscle cells); conditions: polyQ40 animals, earlier publication (ref. 37); cited from earlier work

CCCCc1oc2ccc(NS(C)(=O)=O)cc2c1C(=O)c1ccc(OCCCN(CCCC)CCCC)cc1 [dronedarone]
number of fluorescent protein aggregates per animal (median ± standard deviation) ([1]; 25 μM): 16±5 aggregates per animal | number of fluorescent protein aggregates per animal (median ± standard deviation) ([1]; 50 μM): 7±2 aggregates per animal | effect on formation of protein aggregates (in words) ([1]; polyQ40 animals, 25 and 50 μM, LEAD imaging): prevents the formation of protein aggregates with a dose response; also recorded: can reduce aggregation with a dose response | effect on formation of aggregates, previously observed (in words) [2]: prevents the formation of aggregates in the polyQ40 animals
